Data on 1 compound can be found in publication PMC9321718 (Pharmaceuticals, 2022).

The nature of series [1]: Solid-phase FTIR microscopy of the EG–HPCD complex (distribution of EE). It is filed as physicochemical. To be noted: EG–HPCD complex in solid form. The text has this: To level the overlap of bond fluctuations in water molecules and the effect of hydration, the spectra of the EG–HPCD complex in solid form were registered as complementary materials (Figure S6). There are characteristic peaks of EG, which were quenched in the aqueous phase, C–Carom and C=C of the ethylene group. In the solid phase, we observed peaks corresponding to the stretching oscillations of CH2, CH3 groups (2900–3000 cm^−^1) and O-H (3200–3500 cm^−^1) without solvent contribution. […] EG was effectively (EE > 70%) included in two-thirds of the sample by quantity, in the remaining part EE exceeded 25–35%.
ATR-FTIR spectra of samples’ solutions (point 3.3.1) were recorded using a Bruker Tensor 27 spectrometer equipped with a liquid nitrogen cooled MCT (mercury cadmium telluride) detector. Samples were placed in a thermostatic cell BioATR-II with ZnSe ATR element (Bruker, Ettlingen, Germany). The IR spectrometer was merged with a constant flow of N2 (NiGen HF-1, Clint, Italy). FTIR spectra were acquired from 900 to 3000 cm^−1 with 1 cm^−1 spectral resolution. For each spectrum, 50–70 scans were accumulated at 20 kHz scanning speed and averaged. ATR-FTIR spectra of solid samples placed on KBr glass were recorded using a Bruker Lumos II IR microscope in the region from 700 to 4000 cm^−1 with 1 cm^−1 spectral resolution with scanning in the area on average 1 × 1 microns. […]

The next series concerns Gram-negative bacteria. The arrangement: method as in PMID 19540744. The conditions noted are these: cited from earlier work.
On the set-up of series [2]: method as in doi:10.1016/j.foodres.2009.06.006. To be noted: complex with β-form of CD; cited from earlier work.
On the set-up of series [3]: method as in PMID 20214546. To be noted: host:guest molar ratio of 1:1; cited from earlier work.

Structures are written as SMILES.

With `C=CCc1ccc(O)c(OC)c1` [Eugenol, 4-allyl-2-methoxyphenol], in series [1] (remaining part), the “EE in the remaining part of the sample” value was 25–35%. Moreover, in series [1] (two-thirds of the sample by quantity), the “EE in two-thirds of the sample” value was over 70%. Further, the “reduction of the MIC of antibiotics by EG as an adjuvant” value with Gram-negative bacteria (Gram-negative bacteria, highest values for tetracycline and vancomycin) was 5–1000 times. The “concentration at which EG forms defects in the membranes of bacteria” value in the series with Gram-negative bacteria (suggested) is listed as 1 mM. The half-dissociation period in series [2] is listed as 3 h. In series [3], the “initial amount of EG included in CD” value was about 92% and the “mass fraction of EG in the sample” value was “about 58%”.
